Test results published in publication PMC4403932 (Journal of Medicinal Chemistry, 2015).
Where two headings read alike, the source gives them in different places.

Tests used:
[1] = target: T1, BRD3(1) (Homo sapiens, UniProt Q15059); assay: Protein stability (thermal) shift assay, BRD3(1); assay type: binding; conditions: compound 10 μM, protein 2 μM; average of triplicate
T1 construct: Fragments were tested in a thermal shift assay against bromodomains of the BET subfamily; made in house

[2] = target: T2, BRD2(2) (Homo sapiens, UniProt P25440); assay: Protein stability (thermal) shift assay, BRD2(2); assay type: binding; conditions: compound 10 μM, protein 2 μM; average of triplicate
T2 construct: made in house

[3] = target: T3, PB1(5) (Homo sapiens, UniProt Q86U86); assay: Protein stability (thermal) shift assay, PB1(5); assay type: binding; conditions: compound 10 μM, protein 2 μM; average of triplicate
T3 construct: made in house

[4] = target: T4, BRDT(1) (Homo sapiens, UniProt Q58F21); assay: Protein stability (thermal) shift assay, BRDT(1); assay type: binding; conditions: compound 10 μM, protein 2 μM; average of triplicate
T4 construct: made in house

[5] = target: T5, BRD3(2) (Homo sapiens, UniProt Q15059); assay: Protein stability (thermal) shift assay, BRD3(2); assay type: binding; conditions: compound 10 μM, protein 2 μM; average of triplicate
T5 construct: made in house

[6] = target: T6, BAZ2B (Homo sapiens, UniProt Q9UIF8); assay: Protein stability (thermal) shift assay, BAZ2B; assay type: binding; conditions: compound 10 μM, protein 2 μM; average of triplicate; read-out: ΔTm Shift, BAZ2BA
T6 construct: representative BRDs from other structural subfamilies (family I, PCAF); family III, CREBBP; family IV, BRD9; family V, BAZ2B; made in house
T6 sequence (Q9UIF8 2060-2164 limits assumed): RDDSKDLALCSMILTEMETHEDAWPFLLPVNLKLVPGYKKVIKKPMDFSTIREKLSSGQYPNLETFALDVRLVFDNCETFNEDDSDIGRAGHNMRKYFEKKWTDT

[7] = target: T7, BRD4(1) (Homo sapiens, UniProt O60885); assay: Protein stability (thermal) shift assay, BRD4(1); assay type: binding; conditions: compound 10 μM, protein 2 μM; average of triplicate; read-out: ΔTm Shift, BRD4(1)
T7 construct: made in house

[8] = target: T8, BRDT(2) (Homo sapiens, UniProt Q58F21); assay: Protein stability (thermal) shift assay, BRDT(2); assay type: binding; conditions: compound 10 μM, protein 2 μM; average of triplicate; read-out: ΔTm Shift, BRDT(2)
T8 construct: made in house

[9] = target: T9, BRD4(2) (Homo sapiens, UniProt O60885); assay: Protein stability (thermal) shift assay, BRD4(2); assay type: binding; conditions: compound 10 μM, protein 2 μM; average of triplicate
T9 construct: made in house

[10] = target: T10, BRD9 (Homo sapiens, UniProt Q9H8M2); assay: Protein stability (thermal) shift assay, BRD9; assay type: binding; conditions: compound 10 μM, protein 2 μM; average of triplicate; read-out: ΔTm Shift, BRD9
T10 construct: made in house
T10 sequence (Q9H8M2 136-240 limits assumed): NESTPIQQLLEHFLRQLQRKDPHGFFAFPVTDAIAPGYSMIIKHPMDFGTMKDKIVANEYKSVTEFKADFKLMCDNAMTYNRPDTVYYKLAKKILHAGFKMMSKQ

[11] = target: T11, CREBBP (Homo sapiens, UniProt Q92793); assay: Protein stability (thermal) shift assay, CREBBP; assay type: binding; conditions: compound 10 μM, protein 2 μM; average of triplicate; read-out: ΔTm Shift, CREBBP
T11 construct: small thermal shits (1.0–1.3 °C) for the bromodomain of CREBBP; made in house

[12] = target: T10, BRD9; assay: Isothermal titration calorimetry, BRD9; assay type: binding; conditions: for Kd / TΔS / ΔG / N (stoichiometry) / ΔHobs: ITC; for LE (ligand efficiency): LE = ΔG/N, N number of non-hydrogen atoms
Experimental: Experiments were carried out on an ITC200 titration microcalorimeter from MicroCal, LLC (GE Healthcare) equipped with a Washing module, with a cell volume of 0.2003 mL, and a 40 μL microsyringe. Experiments were carried out at 15 °C while stirring at 1000 rpm, in ITC buffer (50 mM HEPES, pH 7.5 (at 25 °C), 150 mM NaCl). The microsyringe was loaded with a solution of the protein sample (300−740 μM protein for BRD9 and BRD4(1), respectively, in ITC buffer) and was carefully inserted into the calorimetric cell which was filled with an amount of the ligand (0.2 mL, 20–25 μM in ITC buffer). The system was first allowed to equilibrate until the cell temperature reached 15 °C, and an additional delay of 60 s was applied. All titrations were conducted using an initial control injection of 0.3 μL followed by 38 identical injections of 1 μL with a duration of 2 s (per injection) and a spacing of 120 s between injections. The titration experiments were designed in such a fashion as to ensure complete saturation of the proteins before the final injection. The heat of dilution for the proteins was independent of their concentration and corresponded to the heat observed from the last injection, following saturation of ligand binding, thus facilitating the estimation of the baseline of each titration from the last injection. The collected data were corrected for protein heats of dilution (measured on separate experiments by titrating the proteins into ITC buffer) and deconvoluted using the MicroCal Origin software supplied with the instrument to yield enthalpies of binding (ΔH) and binding constants (KB) in the same fashion as that previously described in detail by Wiseman and co-workers.[66] Thermodynamic parameters were calculated using the basic equation of thermodynamics (ΔG = ΔH – TΔS = −RT ln KB, where ΔG, ΔH, and ΔS are the changes in free energy, enthalpy, and entropy of binding, respectively). In all cases a single binding site model was employed, supplied with the MicroCal Origin software package.

[13] = target: T12, BRD2(1) (Homo sapiens, UniProt P25440); assay: Protein stability (thermal) shift assay, BRD2(1); assay type: binding; conditions: compound 10 μM, protein 2 μM; average of triplicate
T12 construct: Fragments were tested in a thermal shift assay against bromodomains of the BET subfamily; made in house

[14] = target: T13, PCAF (Homo sapiens, UniProt Q92831); assay: Protein stability (thermal) shift assay, PCAF; assay type: binding; conditions: compound 10 μM, protein 2 μM; average of triplicate
T13 construct: representative BRDs from other structural subfamilies (family I, PCAF); made in house
T13 sequence (Q92831 723-827 limits assumed): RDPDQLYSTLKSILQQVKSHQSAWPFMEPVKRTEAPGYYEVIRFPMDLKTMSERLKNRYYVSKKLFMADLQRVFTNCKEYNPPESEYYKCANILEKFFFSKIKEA

[15] = test system: human bromodomains (panel); assay: Protein stability (thermal) shift assay, whole panel of human bromodomains; assay type: binding; conditions: 10 μM compound
Experimental: Thermal melting experiments were carried out using an Mx3005p real time PCR machine (Stratagene). Proteins were buffered in 10 mM HEPES, pH 7.5, 500 mM NaCl and assayed in a 96-well plate at a final concentration of 2 μM in 20 μL volume. Compounds were added at a final concentration of 10 or 100 μM. SYPRO Orange (Molecular Probes) was added as a fluorescence probe at a dilution of 1 in 1000. Excitation and emission filters for the SYPRO-Orange dye were set to 465 and 590 nm, respectively. The temperature was raised with a step of 3 °C per minute from 25 to 96 °C, and fluorescence readings were taken at each interval. The temperature dependence of the fluorescence during the protein denaturation process was approximated by the equation [drawing 1] where ΔuG is the difference in unfolding free energy between the folded and unfolded state, R is the gas constant, and yF and yU are the fluorescence intensity of the probe in the presence of completely folded and unfolded protein, respectively.[65] The baselines of the denatured and native states were approximated by a linear fit. The observed temperature shifts, ΔTm^obs, were recorded as the difference between the transition midpoints of sample and reference wells containing protein without ligand in the same plate and determined by nonlinear least-squares fit. Temperature shifts (ΔTm^obs) for three independent measurements per proteins/compound are summarized in Supporting Information Table S1.

[16] = Solubility (observation in words); assay type: physicochemical
[17] = 50 mM HEPES pH 7.5, 150 mM NaCl, 15 °C, reverse titration, triplicate, read-out: KD

T3 sequence (Q86U86 653-763 limits assumed): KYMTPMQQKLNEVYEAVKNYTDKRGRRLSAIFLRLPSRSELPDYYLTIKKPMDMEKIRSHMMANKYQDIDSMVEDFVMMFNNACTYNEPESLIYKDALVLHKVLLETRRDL
T2 sequence (P25440 344-453 limits assumed): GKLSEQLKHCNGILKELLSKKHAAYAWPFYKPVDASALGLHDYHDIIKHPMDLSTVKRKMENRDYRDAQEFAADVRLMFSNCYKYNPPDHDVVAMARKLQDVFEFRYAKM
T12 sequence (P25440 74-180 limits assumed): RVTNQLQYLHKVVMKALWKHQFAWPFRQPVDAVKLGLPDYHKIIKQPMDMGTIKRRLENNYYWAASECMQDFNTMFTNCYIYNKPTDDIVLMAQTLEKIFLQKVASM
T1 sequence (Q15059 34-140 limits assumed): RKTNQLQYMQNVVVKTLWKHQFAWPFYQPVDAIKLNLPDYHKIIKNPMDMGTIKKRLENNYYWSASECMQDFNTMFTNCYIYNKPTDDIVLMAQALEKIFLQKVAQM
T5 sequence (Q15059 306-415 limits assumed): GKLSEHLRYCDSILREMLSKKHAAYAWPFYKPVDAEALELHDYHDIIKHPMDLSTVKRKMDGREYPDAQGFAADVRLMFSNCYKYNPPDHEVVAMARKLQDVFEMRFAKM
T11 sequence (Q92793 1085-1192 limits assumed): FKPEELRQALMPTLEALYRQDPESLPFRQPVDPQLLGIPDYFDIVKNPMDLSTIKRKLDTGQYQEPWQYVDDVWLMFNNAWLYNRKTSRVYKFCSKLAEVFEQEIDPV

| ΔTm at 10 µM [1] | ΔTm at 10 µM [2] | ΔTm at 10 µM [3] | ΔTm at 10 µM [4] | ΔTm at 10 µM [5] | ΔTm at 10 µM [6] | ΔTm at 10 µM [7] | ΔTm at 10 µM [8] | ΔTm at 10 µM [9] | ΔTm at 10 µM [10] | ΔTm at 10 µM [11] | Kd [12, 17] | TΔS ([12]; 15 °C) | ΔG ([12]; 15 °C) | N (stoichiometry) ([12]; 15 °C, reverse titration) | ΔHobs ([12]; 15 °C, reverse titration) | LE (ligand efficiency) [12] | ΔTm at 10 µM [13] | ΔTm at 10 µM [14] | binding to the bromodomain panel in the ΔTm assay (in words) [15] | Structure (SMILES) | other results |
| --- | --- | --- | --- | --- | --- | --- | --- | --- | --- | --- | --- | --- | --- | --- | --- | --- | --- | --- | --- | --- | --- |
| 1 °C | -0.564 °C | 1.3 °C | -0.541 °C | -0.00857 °C | -0.7 °C | 1.3 °C | -0.164 °C | 0.3 °C | 0.9 °C | 2.5 °C | 7.87 ± 0.258 µM | –1.57 kcal/mol | –6.73 kcal/mol | 1.06 ± 0.014 | –8.30 ± 0.15 kcal/mol | 0.35 | 0.8 °C | -0.4 °C | loss of affinity toward all BRDs | COc1ccc(Br)cc1-c1nc(Cl)nc2[nH]cnc12 [Compound 8a, 6-(5-Bromo-2-methoxyphenyl)-2-chloro-9H-purine] | Kd ([12]; read-out: dissociation constant): 7.9 µM |
| 1.9 °C | 1.2 °C | 1.7 °C | 1.5 °C | 1.3 °C | 1.2 °C | 2.3 °C | 1.8 °C | 1.3 °C | -0.2 °C | 1 °C | 7.58 ± 0.365 µM | 1.40 kcal/mol | –6.75 kcal/mol | 1.05 ± 0.013 | –5.35 ± 0.09 kcal/mol | 0.36 | 2.1 °C | 2 °C | promiscuously bound to most bromodomains | COc1ccc(Cl)cc1-c1nc(O)nc2[nH]cnc12 [Compound 8e, 6-(5-Chloro-2-methoxyphenyl)-2-hydroxy-9H-purine] |  |
|  |  |  |  |  |  |  |  |  |  |  |  |  |  |  |  |  |  |  |  | COc1ccc(Br)cc1-c1ncnc2[nH]c(C)nc12 [Compound 9a, 6-(5-Bromo-2-methoxyphenyl)-8-methyl-9H-purine] | solubility (in words) [16]: low solubility |
|  |  |  |  |  |  |  |  |  | 0.158 °C |  |  |  |  |  |  |  |  |  |  | Nc1nc(-c2cccc3c2Sc2ccccc2S3)c2nc[nH]c2n1 [Compound 10, 2-Amino-6-thianthrenyl-9H-purine] | solubility (in words) [16]: low solubility |
